34 compounds from patent publication US20250214977A1, “STAT6 INHIBITORS AND USES THEREOF” (Kymera Therapeutics, Inc., priority 2024, published 2025) can be followed below.

The subject of this experiment is Phosphorylation of STAT6 in human PBMC (CD19+ B cells). Briefly: Phosphorylated STAT6 (pSTAT6) flow cytometry assay in human PBMC, IL-4 stimulated. As to conditions: compound 1 hour, 1 ng/ml IL-4 for 15 minutes, read-out: STAT6 IL4 pSTAT6 assay in PBMC: Average IC50. It counts as cell-based. The method in brief: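 Human PBMC preincubated 1 h at 37 °C with compound (9-point 1:3 series, top up to 30 μM), then stimulated with 1 ng/ml IL-4 for 15 min. After fixation, methanol permeabilization and staining, pSTAT6 quantified in CD19+ B cells by flow cytometry; four-parameter fit of inhibition.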
Background: Flow cytometry measures light scatter and fluorescence of single cells or particles in a stream.

Molecules are shown by their SMILES.

A word on the IC50: it is the concentration that gives 50% inhibition. `COC(=O)CCC#Cc1cc(C2=CCCN(C(=O)C3Cc4ccccc4CN3C=O)C2)cc2cc(C(=O)N(C)C)oc12` (stereo not shown) [Example I-184]: the IC50 lay in the range of 10 to 100 µM.

In the case of `CN(C)C(=O)c1cc2cc(C3=CCCN(C(=O)CCc4cn5cccnc5n4)C3)ccc2o1` [Example I-281], the IC50 was greater than 100 µM.

As for `CN(C)C(=O)c1cc2ccc(C3=CCCN(C(=O)C4CS(=O)(=O)C4)C3)cc2[nH]1` [Example I-163], the IC50 was greater than 100 µM.

On to `CN(C)C(=O)c1cc2ccc(C3=CCCN(C(=O)C(O)Cc4ccccc4)C3)cc2[nH]1` (stereo not shown) [Example I-52], for which the IC50 was in the range of 10 to 100 µM.

`CNc1ccc(-c2cc(C3=CCCN(C(=O)CCn4ccnn4)C3)cc3[nH]c(C(=O)N(C)C)cc23)c(C)c1` [Example I-114]: the IC50 lay within 0.1 to 1 µM.

Turning to `CN(C)C(=O)c1cc2ccc(C3=CCCN(C(=O)Cc4c[nH]nn4)C3)cc2[nH]1` [Example I-38], the IC50 is greater than 100 µM.

On to `CN(C)C(=O)c1cc2ccc(C3=CCCN(C(=O)c4ccccc4-c4ccccc4C(=O)O)C3)cc2[nH]1` [Example I-105], for which the IC50 fell in the range of 10 to 100 µM.

`CN(C)C(=O)c1cc2cc(C3=CCCN(C(=O)CCc4c[nH]c5ccccc45)C3)ccc2o1` [Example I-300]: the IC50 was greater than 100 µM.

As for `CN(C)C(=O)c1cc2ccc(C3=CCCN(C(=O)C(c4ccc(F)cc4)c4ccc(F)cc4)C3)cc2[nH]1` [Example I-160], the IC50 was greater than 100 µM.

Take `Cc1cc(Cl)c(S(C)(=O)=O)cc1C(=O)N1CCC=C(c2ccc3cc(C(=O)N(C)C)[nH]c3c2)C1` [Example I-74]: the IC50 lay in the range of 10 to 100 µM.

For `CN(C)C(=O)c1cc2cc(C3=CCCN(C(=O)Cc4ccc5nccnc5c4)C3)ccc2o1` [Example I-297], the IC50 was greater than 100 µM.

For `CCOC(=O)N(CC(=O)N1CCC=C(c2ccc3cc(C(=O)N(C)C)[nH]c3c2)C1)Cc1ccco1` [Example I-81], the IC50 was greater than 100 µM.

Regarding `CN(C)C(=O)c1cc2ccc(C3=CCCN(C(=O)[C@@H](N)Cc4cccc(F)c4)C3)cc2[nH]1` [Example I-65], the IC50 was greater than 100 µM.

For the compound `CN(C)C(=O)c1nc2cc(C3=CCCN(C(=O)CCn4ccnn4)C3)ccc2s1` [Example I-192], the IC50 is greater than 100 µM.

Consider `Cc1cc(CC(=O)N2CCC=C(c3ccc4cc(C(=O)N(C)C)[nH]c4c3)C2)on1` [Example I-133], for which the IC50 was greater than 100 µM.

For the compound `CC(=O)NCc1ccccc1-c1ccccc1CC(=O)N1CCC=C(c2ccc3oc(C(=O)N(C)C)cc3c2)C1` [Example I-219], the IC50 is greater than 100 µM.

As for `CN(C)C(=O)c1cc2cc(C3=CCCN(C(=O)Cn4cccn4)C3)ccc2o1` [Example I-261], the IC50 was greater than 100 µM.

On to `CN(C)C(=O)c1cc2ccc(C3=CCCN(C(=O)c4cccnc4-c4ccc(F)c(F)c4)C3)cc2[nH]1` [Example I-137], for which the IC50 was greater than 100 µM.

In the case of `CC(=O)OCC(C(=O)N1CCC=C(c2ccc3cc(C(=O)N(C)C)[nH]c3c2)C1)c1ccccc1` (stereo not shown) [Example I-73], the IC50 was in the range of 10 to 100 µM.

For `CN(C)C(=O)c1cc2cc(C3=CCCN(C(=O)Cc4cnc5ccccn45)C3)ccc2o1` [Example I-276], the IC50 was greater than 100 µM.

`CN(C)C(=O)c1cc2cc(C3=CCCN(C(=O)C4Cc5c(N)cccc5CN4C=O)C3)ccc2o1` (stereo not shown) [Example I-8]: the IC50 fell in the range of 0.1 to 1 µM.

Consider `CN(C)C(=O)c1cc2ccc(C3=CCCN(C(=O)C4ON=C(c5ccccc5)O4)C3)cc2[nH]1` (stereo not shown) [Example I-71], for which the IC50 is 10 to 100 µM.

For the compound `CN(C)C(=O)c1cc2ccc(C3=CCCN(C(=O)C4CC(=O)N4)C3)cc2[nH]1` (stereo not shown) [Example I-30], the IC50 lay within 10 to 100 µM.

As to `O=C(NCCO)c1cc2cc(C3=CCCN(C(=O)CCn4ccnn4)C3)ccc2o1` [Example I-307], the IC50 was greater than 100 µM.

Take `CCC(=O)N1Cc2ccccc2CC1C(=O)N1CCC=C(c2ccc3oc(C(=O)N(C)C)cc3c2)C1` (stereo not shown) [Example I-189]: the IC50 was greater than 100 µM.

For the compound `O=C(CCn1ccnn1)N1CCC=C(c2ccc3oc(C(=O)N4CCCCC4)cc3c2)C1` [Example I-128], the IC50 lay within 10 to 100 µM.

With `CC1CCCN(C(=O)c2cc3ccc(C4=CCCN(C(=O)CCn5ccnn5)C4)cc3[nH]2)C1` (stereo not shown) [Example I-126], the IC50 is greater than 100 µM.

`CN(C)C(=O)c1cc2cc(C3=CCCN(C(=O)Cc4ccccc4)C3)ccc2o1` [Example I-283]: the IC50 was greater than 100 µM.

As for `CC(=O)NC(C(=O)N1CCC=C(c2ccc3cc(C(=O)N(C)C)[nH]c3c2)C1)c1cccc(Cl)c1` (stereo not shown) [Example I-77], the IC50 was in the range of 10 to 100 µM.

In the case of `CNCc1cccc2c1CC(C(=O)N1CCC=C(c3ccc4oc(C(=O)N(C)C)cc4c3)C1)N(C=O)C2` (stereo not shown) [Example I-148], the IC50 is greater than 100 µM.

`CN(C)C(=O)c1cc2ccc(C3=CCCN(C(=O)CCC(=O)O)C3)cc2[nH]1` [Example I-112]: the IC50 is greater than 100 µM.

For `CC(=O)N1CCC(c2cccc3c2CC(C(=O)N2CCC=C(c4ccc5oc(C(=O)N(C)C)cc5c4)C2)N(C=O)C3)CC1` (stereo not shown) [Example I-180], the IC50 is greater than 100 µM.

In the case of `C[C@@H](O)C(=O)N1CCC=C(c2ccc3cc(C(=O)N(C)C)[nH]c3c2)C1` [Example I-24], the IC50 was 10 to 100 µM.

As for `COC(=O)CCC#Cc1cccc2c1CC(C(=O)N1CCC=C(c3ccc4oc(C(=O)N(C)C)cc4c3)C1)N(C=O)C2` (stereo not shown) [Example I-175], the IC50 is 1 to 10 µM.
